Reference: patent publication US6995018B1, “Complex formed by N-linked glycoproteins (SIBLINGS)and Factor H” (The United States of America as represented by the …, priority 1999, dated 2006)

Columns and labels:
[1] = tested on: Murine erythroleukemia (MEL) cells; assay: Alternate complement mediated cell lysis assay, MEL cells with normal human serum; assay type: cell-based; details: for protection of MEL cells from complement-mediated lysis (cell viability): 10 μg/mL protein 10 min, normal human serum 1:10, 2 h, trypan blue and MTT; for effect of pretreatment on protective effect of rOPN: pretreatment followed by rOPN 10 μg/mL
Protocol: MEL cells were rinsed three times with GVB-MgEGTA buffer, resuspended in GVB-MgEGTA at a density of 5×10^6 cells/mL, and incubated at 37° C. with different concentrations of normal human serum. After 2 hrs, cells were harvested for trypan blue exclusion assay. The thiazolium blue assay was carried out at identical serum dilutions and cell viability was determined by absorbance at 560 nm. Each data point represents the average of three measurements. The error bars represent the standard deviation of the mean (A). MEL cells in GVB-MgEGTA buffer were incubated with 10 μg/mL of either rBSP or rOPN for 10 minutes at 37° C. Normal human serum was then added at a dilution of 1:10 and the cells were returned to 37° C., incubated for 2 hours and cell viability was determined by trypan blue and thiazolyl blue (MTT) reduction assays (B). Data from 3–7 separate experiments, with treatment replicates in triplicate, was combined to yield mean values. Error bars represent the standard error of the mean. N=number of experiments combined.
MEL cells prepared as in FIG. 8 were treated with normal rBSP (10 μg/mL), rBSP whose RGD sequence had been mutated to KAE ([…]), and either GRGDS (SEQ ID NO: 10) peptide (400 μM) followed by rBSP or an αVβ3 antibody (1:4000) followed by rBSP for 10 minutes prior to the addition of normal human serum. The cells were then incubated for […] after which cell viability determined using the MTT assay (A). A cohort of MEL cells were pretreated with rOPN (10 μg/mL) alone, GRGDS (SEQ ID NO: 10) peptide followed by rOPN, the αVβ3 antibody followed by rOPN, or an anti-CD44 antibody (Chemicon, Co.) followed by rOPN, or hyaluronan (HA) followed by rOPN (B). Cells were then treated with normal human serum and viability assayed as in FIG. 8. […] The data represents the mean and standard error of the mean for three separate experiments. Statistical significance was determined by analysis of variance. Percent cell viability was determined using A560 absorbance values of various conditions and a control where no serum had been added (100% viable). The cross-hatched region represents that range of values observed when normal human serum (1:10) alone was added (maximal cell death).
The first model system employed was a murine erythroleukemia (MEL) cell line which when incubated with normal human serum can be readily assayed for alternate complement pathway (ACP)-mediated cell lysis (Varnet et al., Curr. Opin. Cell Biol., 8(5):724–730, 1996). Cell survival was measured by both trypan blue dye exclusion and by thiazolyl blue (MTT) reduction by living mitochondria. Titration with dilutions of normal human serum and time courses were carried out to define optimal incubation conditions. At 1:10 dilution, human serum totally lysed the MEL cells as measured by both assay systems (FIG. 8A).
Murine erytliroleukemia (MEL) cells (a gift of Dr. Marilyn Farquhar, Univ. CA San Diego.) grown in DMEM containing 10% fetal bovine serum and 4 mM glutamine were rinsed three times with gelatin veronal buffer with Mg2^+ and EGTA (GVB-MgEGTA, Sigma, St. Louis, Mo.). Cells were resuspended in GVB-MgEGTA at a density of 5×10^6 cells/mL and incubated at 37° C. with different concentrations of normal human serum diluted in GVB-MgEGTA. After 2 h, cells were harvested for trypan blue exclusion assay by removing a 50 μL aliquot, incubating for 15 minutes in 0.4% trypan blue, and counting viable cells under an inverted microscope. The thiazolium blue assay was carried out at identical serum dilutions by incubating a 50 μL aliquot of the cell suspension in an equal volume of 1 mg/mL thiazolyl blue (MTT) for 45 min. Cell viability was determined spectrophotometrically by absorbance at 560 nm. Cells in GVB-MgEGTA buffer were pre-incubated with 10 μg of either rBSP, rDMP1, or rOPN in 1 mL for 10 minutes at 37° C. […]

[2] = biological target: T1, purified human complement Factor H (Homo sapiens, UniProt P08603); assay: Steady state fluorescence titration of Factor H with SIBLINGS proteins; assay type: binding; details: fluorescence quenching at 347 nm, excitation 295 nm
T1 construct: purchased Quidel Corporation (San Diego, Calif.)
Description: FIGS. 3A and 3B are graphs which show the result of a titration of Factor H with BSP.
The salient structural features of Factor H include 20 short consensus repeats (SCRs) that contain four cysteine residues forming two disulfide bonds per repeat. In addition, each SCR contains one conserved tryptophan residue per repeat and Factor H is known to interact with several sialic acid-containing proteins. Therefore, binding interactions between members of the SIBLINGS family of proteins and Factor H can be studied by steady state fluorescence.
Steady state fluorescence studies were accomplished by titrating purified human complement Factor H with rBSP, rOPN, and rDMP1 followed by excitation at 295 nm and monitoring emission between 300 and 450 nm. The emission profile of Factor H alone yields a peak at 347 nm. The addition of rBSP, rOPN, or rDMP1 in nm increments causes a relative fluorescent intensity quenching. Conversion of the fluorescent intensity titration into a binding curve by determining the fraction of binding sites occupied as the fractional change in fluorescence quenching at 347 nm yields a saturable binding curve. […] Given that normal serum concentration of Factor H is ^˜0.5 mg/mL it is probable that virtually all BSP, OPN, and DMP1 in serum will be complexed with Factor H.

U-266 myeloma cells = assay: Alternate complement pathway cell lysis assay with guinea pig serum, U-266; assay type: cell-based, human; details: U-266, 10 μg/mL, guinea pig serum 1:5, trypan blue and MTT
Protocol: (§1) Human cancer cell lines, MCF-7 (A) and U-266 (B) cells were rinsed three time with GVB-MgEGTA buffer and subsequently treated exactly as in the MEL cell complement-mediated cell lysis assay described above except complement active guinea pig serum (GPS) was substituted for human serum. Three different dilutions of GPS were assayed. For cultures pretreated with 10 μg/mL BSP or OPN, the dilution of GPS used was 1:5. Cell viability was determined by both trypan blue exclusion (solid bar) and MTT (open bar) assay. The bars represent the mean values of triplicate samples and the error bars are the standard deviation values.
(§2) Murine erytliroleukemia (MEL) cells (a gift of Dr. Marilyn Farquhar, Univ. CA San Diego.) grown in DMEM containing 10% fetal bovine serum and 4 mM glutamine were rinsed three times with gelatin veronal buffer with Mg2^+ and EGTA (GVB-MgEGTA, Sigma, St. Louis, Mo.). Cells were resuspended in GVB-MgEGTA at a density of 5×10^6 cells/mL and incubated at 37° C. with different concentrations of normal human serum diluted in GVB-MgEGTA. […] Cell viability was determined spectrophotometrically by absorbance at 560 nm. […] Normal human serum collected for good complement activity was then added at a dilution of 1:10 and the cells returned to 37° C. for 2 hours and cell viability was determined by trypan blue-exclusion and MTT assays. […]

[3] = tested on: MCF-7 breast cancer cells; assay: Alternate complement pathway cell lysis assay with guinea pig serum, MCF-7; assay type: cell-based, human; details: MCF-7, 10 μg/mL, guinea pig serum 1:5, trypan blue and MTT
Protocol: as §1, §2

T1 sequence (P08603 19-1231): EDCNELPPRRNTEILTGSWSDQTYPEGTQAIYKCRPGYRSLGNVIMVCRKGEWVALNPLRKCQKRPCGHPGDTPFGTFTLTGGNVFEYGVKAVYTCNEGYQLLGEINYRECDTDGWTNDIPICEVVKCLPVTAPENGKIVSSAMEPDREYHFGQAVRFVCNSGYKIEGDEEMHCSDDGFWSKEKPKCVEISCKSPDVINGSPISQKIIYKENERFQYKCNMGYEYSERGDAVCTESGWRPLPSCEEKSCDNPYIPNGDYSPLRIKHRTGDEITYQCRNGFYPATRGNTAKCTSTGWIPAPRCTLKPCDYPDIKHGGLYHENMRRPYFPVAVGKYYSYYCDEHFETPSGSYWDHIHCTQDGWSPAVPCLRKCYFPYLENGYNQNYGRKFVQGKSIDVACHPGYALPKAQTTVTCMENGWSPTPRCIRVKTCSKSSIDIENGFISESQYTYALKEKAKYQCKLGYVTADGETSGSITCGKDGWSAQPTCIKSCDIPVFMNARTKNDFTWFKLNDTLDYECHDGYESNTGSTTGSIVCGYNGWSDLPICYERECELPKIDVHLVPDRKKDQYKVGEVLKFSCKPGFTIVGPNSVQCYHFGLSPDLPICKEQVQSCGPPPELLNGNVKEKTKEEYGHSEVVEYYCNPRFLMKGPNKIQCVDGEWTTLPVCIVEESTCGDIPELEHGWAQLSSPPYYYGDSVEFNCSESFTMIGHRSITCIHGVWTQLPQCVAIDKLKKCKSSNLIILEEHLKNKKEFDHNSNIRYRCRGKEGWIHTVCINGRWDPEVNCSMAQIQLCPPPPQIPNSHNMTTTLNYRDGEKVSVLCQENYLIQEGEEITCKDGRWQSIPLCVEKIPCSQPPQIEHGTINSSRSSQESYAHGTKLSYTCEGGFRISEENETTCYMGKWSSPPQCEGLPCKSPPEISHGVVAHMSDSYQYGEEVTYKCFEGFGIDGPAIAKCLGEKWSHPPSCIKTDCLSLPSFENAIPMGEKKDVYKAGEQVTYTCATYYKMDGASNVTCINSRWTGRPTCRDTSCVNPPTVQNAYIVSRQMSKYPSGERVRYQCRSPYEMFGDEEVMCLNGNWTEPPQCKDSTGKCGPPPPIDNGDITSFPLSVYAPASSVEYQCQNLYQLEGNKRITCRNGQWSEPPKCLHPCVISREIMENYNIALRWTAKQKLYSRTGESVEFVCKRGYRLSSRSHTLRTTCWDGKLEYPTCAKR

## rOPN-Factor H: pre-formed complex of rOPN and Factor H
[1]
  protection of MEL cells from complement-mediated lysis (cell viability): abolished the protection

## hyaluronan [reference compound]
[1]; MEL cells, MTT
  effect of pretreatment on protective effect of rOPN: reduced the protective effect

## OPN: osteopontin, SIBLINGS family member; recombinant from adenoviral construct
[2]
  binding constant with Factor H: in the nM range
U-266 myeloma cells
  survival and protection from complement-mediated cell lysis: enhanced survival and protection
[3]
  survival and protection from complement-mediated cell lysis: enhanced survival and protection
[1]
  dose relation of protection of MEL cells from alternate complement pathway-mediated lysis: dose related responses
  protection of MEL cells from complement-mediated lysis (cell viability): protect
[1]; listed as recombinant OPN
  protection of MEL cells from complement-mediated lysis (cell viability): conferred protection

## rBSP-Factor H: pre-formed complex of rBSP and Factor H
[1]
  protection of MEL cells from complement-mediated lysis (cell viability): abolished the protection

## GRGDS: synthetic peptide used to compete with SIBLINGS proteins for integrin type binding (Calbiochem-NovaBiochem) [reference compound]
[1]; MEL cells, GRGDS 400 μM or αVβ3 antibody 1:4000 followed by rBSP 10 μg/mL, MTT
  effect of pretreatment on protective effect of rBSP: negated the protective effect
[1]; MEL cells, MTT
  effect of pretreatment on protective effect of rOPN: reduced cell survival
[1]; cells preincubated before DMP1
  effect of preincubation on DMP1 protection: diminished but did not abolish
